Values joined by “and” are separate entries in the source; they are usually repeats but may differ in a detail not shown here. Identical values can stand only once.
How the values were obtained:
[1] = target: T1, maize enzyme cytokinin oxidase/dehydrogenase 1 (ZmCKX1) (Zea mays, UniProt Q9T0N8); test: ZmCKX1 inhibition, PMS/MTT assay; type: biochemical
T1 construct: made in house; host or cells: Yarrowia lipolytica
Protocol: The IC50 (concentration of a substance that causes 50% inhibition of the enzyme activity) was measured by PMS/MTT assay [phenazine methosulphate/3-(4,5-dimethylthiazol-2-yl)-2,5-diphenyltetrazolium bromide]. The assay was performed in 96-well microtiter plates. Each well contained a reaction mixture with a final concentration of: 0.1 M KH2PO4, pH 7.4, 1 mM MTT, 0.2 mM PMS, tested substance in a concentration range of 0.1 nM - 1 µM and 10 µM N^6-isopentenyladenine (iP) as a substrate. To this reaction mixture 100 µL of medium containing the active enzyme ZmCKX1 was added. The enzyme was produced by the yeast Yarrowia lipolytica and isolated according to the protocol (Kopečný D. et al., 2005, […] 87:1011-1022). The plates were incubated for 30 min at 37 °C and the enzymatic reaction was stopped by the addition of 25 µL of 35% acetic acid. Then, the absorbance at 578 nm was measured on a spectrophotometer, and the absorbance of the sample without the substrate was substracted as a reference value. The IC50 value was determined from the concentration-dependent curves in GraphPad Prism software. The values shown in Table 1 are the average of at least two measurements each performed in three repetitions. […] This also applies to 3,5-DCl-Ph-U derivatives.

Arabidopsis thaliana [2] = test: foliar application, seed yield in Arabidopsis; type: in vivo
Protocol: In our experiment, young Arabidopsis thaliana plants were grown in small pots in soil and they were sprayed with a 0.1 µM compound 61 (aq solution) in phase of 4 true leaves (about 14-20 days after sowing). Treated plants (n = 25) and control plants (n = 25) were further grown under optimal conditions until their natural death. Subsequently, seeds were harvested from all plants and the yield was evaluated. […] This means a 19 % increase in total seed yield.
This means an increase in total seed yield of 23 %.

Arabidopsis thaliana [3] = test: foliar application, lifespan of Arabidopsis under optimal conditions; type: in vivo; conditions: sprayed with 0.1 µM aqueous solution in phase of 4 true leaves, n = 25, compared to control plants
Protocol: Young Arabidopsis thaliana plants grown in small pots in a soil were sprayed with a 0.1 µM aqueous solution of substance 61 in phase of 4 true leaves (within 14-20 days after sowing).
Treated plants (n = 25) and control plants (n = 25) were further grown under optimal conditions until their natural death as in Example 25. […] The treated plants remained more green for a longer period of time (delayed senescence), which allowed them to accumulate more products of photosynthesis, which in turn may have contributed to a higher yield of these plants.

[4] = test system: Arabidopsis thaliana (ecotype Col-0); test: abiotic stress (saline, osmotic) assay on Arabidopsis seedlings; type: in vivo; conditions: 10 nM, 6 days of growth after transfer
Protocol: Compound 61 was tested for its ability to alleviate the effects of abiotic stress, represented by application of 100 mM NaCl (saline stress) or 100 mM mannitol (osmotic stress), respectively. The assay was performed as described in (Ugena et al., 2018, Front Plant Sci. 9, 1327. doi: 10.3389/fpls.2018.01327). Arabidopsis thaliana (ecotype Col-0) seeds were germinated on full MS growth medium for three days without presence of any treatment. After that they were transferred to the same medium containing 10 nM concertation of compound 61 in the absence or presence of the abiotic stress factor. Dimethyl sulfoxide (DMSO) was used as a solvent control (mock) in all variants. The dynamics of the shoot biomass formation and the relative growth rate were evaluated by recording the green area twice a day during the 6 days of growth after the seedling transfer. The abiotic stress conditions caused severe penalty in both traits evaluated. The salt and mannitol stress reduced the shoot yield by 63 % and 42 %, respectively, whereas presence of the compound 61 turned back the penalty by almost 20 % (Table 3 and Fig. 1). […] 11 % (Table 3).

[5] = test system: segments of wheat leaves (Triticum aestivum cv. Hereward); test: wheat leaf senescence assay performed in the dark (chlorophyll retention in detached leaf segments); type: in vivo; conditions: Triticum aestivum, foliar, 96 h, read-out: (% of chlorophyll above control)
Protocol: Seeds of winter wheat (Triticum aestivum cv. Hereward) was washed under running water for 4 hours and then sown in vermiculite saturated with Knop's nutrient solution. The trays with seeds were placed in an air-conditioned growth chamber with a 16/8 hour light regime (light intensity 50 µmol.m^-2.s^-1) and a temperature of 15 °C. After 7 days, the seedlings had developed the first […] and the second leaf began to grow. Top sections approximately 4 cm long were excised from the first leaves of 4 plants and their combined weight was adjusted to exactly 100 mg. The basal ends of these 4 leaf segments were placed in the wells of microtiter polystyrene plates containing solution (150 µL) of the tested derivative. The plates were placed in a plastic box with filter paper, which was saturated with water (to maintain the maximum humidity). After 96 hours of incubation in the dark at 25 °C, the leaf segments were removed and the chlorophyll was extracted to 5 mL of 80% ethanol by heating the leaf segments in ethanol at 80 °C for 40 min. The sample volume was then adjusted to 5 mL by adding 80% ethanol. The absorbance of the extracts was measured at 665 nm. Chlorophyll extracts from leaf segments incubated in deionized water (so-called yellow control) were also measured as controls. Freshly cut leaves (100 mg) were used as a green control, from which chlorophyll was extracted and measured in the same manner. The calculated values are the average of 5 replicates and the whole experiment was repeated two times. The tested compounds were dissolved in dimethyl sulfoxide (DMSO) to a concentration 10^-2 M. This stock solution was further diluted with water to a concentration of 10 micromolar. At this concentration, the substances were tested.

winter rapeseed = test: field trial, foliar application, seed yield of winter rapeseed; type: in vivo; conditions: 5 µM in 300 L per hectare; for weight of one thousand seeds: control 5.51 g; for seed yield compared to the control (100 %): foliar
Protocol: In 2017, the effect of foliar application of compound 61 (5 µM concentration in a volume of 300 L per hectare) on seed yield of winter rapeseed in field conditions was determined. The field trials were performed according to "good agricultural practice". Substance 61 was applied to plants in two different growth phases - BBCH 30 and BBCH 33-35. […] The weight of one thousand seeds in the treated plants was 5.7 g (BBCH 30) and 5.8 g (BBCH 33-35). This phenomenon contributed to the increase in total seed yield.

[6] = sprayed with 0.1 µM aq solution in phase of 4 true leaves, n = 25, optimal conditions

T1 sequence (Q9T0N8 19-534): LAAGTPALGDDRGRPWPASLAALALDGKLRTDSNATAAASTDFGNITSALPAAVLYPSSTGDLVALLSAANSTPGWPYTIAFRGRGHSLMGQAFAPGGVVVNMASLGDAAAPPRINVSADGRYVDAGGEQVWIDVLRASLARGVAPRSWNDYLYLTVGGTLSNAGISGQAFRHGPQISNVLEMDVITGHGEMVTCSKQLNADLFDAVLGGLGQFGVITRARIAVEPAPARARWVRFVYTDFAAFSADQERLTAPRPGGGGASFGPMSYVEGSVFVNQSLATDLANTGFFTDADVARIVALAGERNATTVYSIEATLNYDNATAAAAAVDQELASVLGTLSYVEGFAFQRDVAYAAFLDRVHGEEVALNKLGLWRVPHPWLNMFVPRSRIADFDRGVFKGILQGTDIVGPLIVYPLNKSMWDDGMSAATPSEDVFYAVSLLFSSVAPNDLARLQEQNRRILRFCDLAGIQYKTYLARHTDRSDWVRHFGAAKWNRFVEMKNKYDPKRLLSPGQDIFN

O=C(Nc1cccc(OC(F)(F)F)c1)Nc1ccccc1CCO [Compound 61, 1-[2-(2-Hydroxyethyl)phenyl]-3-(3-trifluoromethoxyphenyl)urea]
IC50 [1]: 180 nM
increase in total seed yield (Arabidopsis thaliana [2]; 0.1 µM spray, compared to control plants): 19% and 23%
seeds per silique (average) (Arabidopsis thaliana [2]; [6]): 52 (± 4) and 49 (± 6)
total seed yield per plant (Arabidopsis thaliana [2]; [6]): 155 (± 19) mg and 138 (± 15) mg
longer viability (average) (Arabidopsis thaliana [3]): 10 days
shoot yield: penalty caused by stress turned back ([4]; 100 mM NaCl (saline stress) or 100 mM mannitol (osmotic stress)): ~20%
average relative growth rate: effect of the stressors reduced ([4]; 100 mM NaCl or 100 mM mannitol): ~11%
activation at 10 µM [5]: 24%
weight of one thousand seeds (winter rapeseed; applied at BBCH 30): 5.7 g
weight of one thousand seeds (winter rapeseed; applied at BBCH 33-35): 5.8 g
seed yield compared to the control (100 %) (winter rapeseed; applied at BBCH 30, 2017): 105.7%
seed yield compared to the control (100 %) (winter rapeseed; applied at BBCH 33-35, 2017): 107.5%
